# Reference: PMC3511013, “Dimerization of a cell-penetrating peptide leads to enhanced cellular uptake and drug delivery” (Beilstein Journal of Organic Chemistry, 2012)
# Bridge positions count the residues as written; N and C are the ends. Ends that are not written are not given here. Peptide text beside a SMILES is read from it. I, II: the chains in the order shown. * marks the point of attachment. Chlorambucil = O=C(CCCc1ccc(N(CCCl)CCCl)cc1)*
# Tests used:
# HEK-293 cells [1] = assay: Flow cytometric cellular uptake of carboxyfluorescein-labeled peptides; format: cell-based, human; settings: 1 h, flow cytometry; for cellular uptake at 1 µM: HEK-293, CF-labeled peptide 1 µM
# Experimental: (§1) For peptide-uptake studies by flow cytometry, cells were seeded in a 48-well plate and grown to 60–70% confluence. After incubation at 37 °C for 1 h with 5(6)-carboxyfluorescein-labeled peptides in OptiMEM, the cells were treated with 150 µM trypan blue for 0.5 min to quench extracellular fluorescence and washed twice with PBS, trypsinized and resuspended in standard cell-culture medium. Analyses were performed on a Partec CyFlow ML flow cytometer. Cellular autofluorescence was subtracted. The experiments were carried out with n (number of experiments) = 2 in duplicate.
# HT-29 cells [2] = assay: as above; format: cell-based, human; settings: 1 h, flow cytometry; for cellular uptake at 1 µM: HT-29, CF-labeled peptide 1 µM
# Experimental: as §1
# MCF-7 cells [3] = assay: as above; format: cell-based, human; settings: 1 h, flow cytometry; for cellular uptake at 1 µM: MCF-7, CF-labeled peptide 1 µM
# Experimental: as §1
# HEK-293 cells [4] = assay: Fluorescence microscopic uptake study; format: cell-based, human; settings: unfixed HEK-293, 1 µM CF-labeled peptide, 30 min, fluorescence microscopy
# Experimental: (§2) For fluorescence microscopic uptake studies, cells were seeded in an 8-well ibidi plate and grown to 60–70% confluence. The cells were then incubated with CF-labeled peptides in OptiMEM for 30 min at 37 °C. Ten minutes prior to the end of incubation, the nuclei were stained by addition of Hoechst33342 nuclear dye. Finally, the solution was removed, and the cells were treated with a 150 µM trypan blue solution for 0.5 min. After washing twice with PBS, images were taken by using a Zeiss Observer Z1 fluorescence microscope equipped with an ApoTome unit using a 63× oil immersion objective.
# [5] = tested on: human adipose tissue-derived stem cells (hADSC); assay: Fluorescence microscopic uptake study in primary cells; format: cell-based; settings: 1 h
# Experimental: as §2, with “The cells were then incubated with CF-labeled peptides in OptiMEM for 30 min at 37 °C.” left out
# HEK-293 cells [6] = assay: Resazurin-based cell viability assay; parameters: species or system human; settings: HEK-293, 24 h, concentrations up to 100 µM, n = 2 in triplicate
# Experimental: (§3) Untreated cells were set to 100%. […] Experiments were carried out with n = 2 in triplicate.
# HT-29 cells [7] = assay: Resazurin-based cell viability assay; parameters: species or system human; settings: n = 2 in triplicate; for IC50: resazurin-based cell viability, 24 h incubation, in the presence of serum, nonlinear regression, ± spread
# Experimental: as §3
# HEK-293 cells [8] = assay: LDH release (membrane integrity) assay; format: cell-based, human; settings: HEK-293, 1 h incubation, elevated concentrations, CytoTox-One, n = 2 in triplicate
# Experimental: Experiments were carried out with n = 2 in triplicate.
# MCF-7 cells [9] = assay: Resazurin-based cell viability assay; settings: n = 2 in triplicate; for IC50: read-out: IC50 MCF-7, resazurin-based cell viability, 24 h incubation, in the presence of serum, nonlinear regression, ± spread
# Experimental: Cytotoxicity was determined by means of a resazurin-based cell-viability assay. Cells were seeded in a 96-well plate, grown to subconfluency and incubated with the substances at different concentrations for 24 h in the presence of serum under standard growth conditions. For the positive control, cells were treated with 70% ethanol for 10 min. After washing, the cell viability was determined relative to untreated cells by using the In Vitro Toxicology Assay Kit from Sigma-Aldrich according to the manufacturer’s protocol. Measurement was performed fluorimetrically at 595 nm (λex = 550 nm) on a Tecan SpectraFluor Plus plate reader. Untreated cells were set to 100%. IC50 values were calculated by using nonlinear regression (sigmoidal dose–response) with GraphPad Prism. Experiments were carried out with n = 2 in triplicate.
# HT-29 cells [10] = assay: LDH release (membrane integrity) assay; settings: HT-29, 1 h incubation
# Experimental: (§4) For the membrane leakage assay utilizing the Promega CytoTox-One kit, cells were seeded in a 96-well plate, grown to subconfluency, and incubated with the substances at different concentrations for 1 h in the presence of serum under standard growth conditions. Afterwards, the assay was conducted according to the manufacturer’s protocol including the provided cell lysis positive control. Measurement was performed fluorimetrically at 595 nm (λex = 550 nm) on a Tecan SpectraFluor Plus plate reader. The negative control served as blank value, and data were normalized to the positive control. Experiments were carried out with n = 2 in triplicate.
# MCF-7 cells [11] = assay: LDH release (membrane integrity) assay
# Experimental: as §4
# HT-29 cells [12] = settings: cited from earlier work
# Experimental: (§5) The effect of the dimeric sC18 on the survival of HEK-293, HT-29 and MCF-7 cells was determined by means of a resazurin-based cell viability assay.
# MCF-7 cells [13] = settings: cited from earlier work
# Experimental: as §5
# [14] = 25 µM CF-labeled peptide, fluorescence microscopy
compound,measurement,setting,value
CC[C@H](C)[C@H](NC(=O)[C@H](CCCCN)NC(=O)[C@H](CC(N)=O)NC(=O)[C@H](CCCNC(=N)N)NC(=O)[C@H](Cc1ccccc1)NC(=O)[C@H](CCCCN)NC(=O)[C@H](CCCNC(=N)N)NC(=O)[C@H](CC(C)C)NC(=O)[C@H](CCCNC(=N)N)NC(=O)[C@H](CCCCNC(=O)[C@H](CCCCN)NC(=O)[C@H](CCC(=O)O)NC(=O)[C@H](CCCCN)NC(=O)[C@@H](NC(=O)[C@H](CCCCN)NC(=O)[C@H](CC(N)=O)NC(=O)[C@H](CCCNC(=N)N)NC(=O)[C@H](Cc1ccccc1)NC(=O)[C@H](CCCCN)NC(=O)[C@H](CCCNC(=N)N)NC(=O)[C@H](CC(C)C)NC(=O)[C@H](CCCNC(=N)N)NC(=O)[C@H](CCCCN)NC(=O)[C@H](CCCNC(=N)N)NC(=O)[C@H](CC(C)C)NC(=O)CN)[C@@H](C)CC)NC(=O)[C@H](CCCNC(=N)N)NC(=O)[C@H](CC(C)C)NC(=O)CN)C(=O)N[C@@H](CCCCN)C(=O)N[C@@H](CCC(=O)O)C(=O)N[C@@H](CCCCN)C(N)=O [(sC18)2] (I: H-GLRKRLRKFRNKIKEK / II: H-GLRKRLRKFRNKIKEK-NH2; amide I:C-II:4),cellular uptake at 1 µM,"HEK-293 cells [1]; 37 °C, OptiMEM",significant uptake
same,increase of intracellular fluorescence versus sC18,"HEK-293 cells [1]; HEK-293, CF-labeled peptides, 37 °C, OptiMEM, trypan blue quench, n = 2 in duplicate",≥ 10 fold
same,uptake rate at 1 µM compared to sC18 at 10 µM,"HEK-293 cells [1]; HEK-293, CF-labeled, p ≤ 0.05",significantly higher
same,amount taken up by HT-29 cells compared to the other cell lines,"HT-29 cells [2]; CF-labeled peptide 10 µM, versus HEK-293 and MCF-7",less than half
same,cellular uptake at 1 µM,"HT-29 cells [2]; 37 °C, OptiMEM",significant uptake
same,increase of intracellular fluorescence versus sC18,"HT-29 cells [2]; HT-29, CF-labeled peptides, 37 °C, OptiMEM, trypan blue quench, n = 2 in duplicate",≥ 10 fold
same,cellular uptake at 1 µM,"MCF-7 cells [3]; 37 °C, OptiMEM",significant uptake
same,increase of intracellular fluorescence versus sC18,"MCF-7 cells [3]; MCF-7, CF-labeled peptides, 37 °C, OptiMEM, trypan blue quench, n = 2 in duplicate",≥ 10 fold
same,uptake rate at 1 µM compared to sC18 at 10 µM,"MCF-7 cells [3]; MCF-7, CF-labeled, p ≤ 0.05",significantly higher
same,intracellular distribution pattern,HEK-293 cells [4],punctate uptake pattern
same,intracellular distribution in primary cells,[5]; [14],evenly distributed throughout the cells
same,uptake into primary cells,[5]; [14],bright intracellular fluorescence
same,cytotoxicity judged by cell morphology,"[5]; 25 µM, microscopy",no cytotoxicity
same,cell viability,HEK-293 cells [6],remained unharmed
same,cell viability,"HT-29 cells [7]; HT-29, 24 h, resazurin, different concentrations up to 100 µM (Figure 3)",steady decrease of cell viability
same,membrane leakage (LDH release),HEK-293 cells [8],only show a little membrane leakage
same,cell viability,"MCF-7 cells [9]; MCF-7, 24 h, resazurin, different concentrations up to 100 µM (Figure 3)",steady decrease of cell viability
same,extracellular LDH levels,"HT-29 cells [10]; in the presence of serum, CytoTox-One, compared to MCF-7",much smaller
same,extracellular LDH (membrane destabilization),"MCF-7 cells [11]; MCF-7, 30 µM, 1 h incubation, in the presence of serum, CytoTox-One",high levels of extracellular LDH
CC[C@H](C)[C@H](NC(=O)[C@H](CCCCN)NC(=O)[C@H](CC(N)=O)NC(=O)[C@H](CCCNC(=N)N)NC(=O)[C@H](Cc1ccccc1)NC(=O)[C@H](CCCCN)NC(=O)[C@H](CCCNC(=N)N)NC(=O)[C@H](CC(C)C)NC(=O)[C@H](CCCNC(=N)N)NC(=O)[C@H](CCCCNC(=O)[C@H](CCCCN)NC(=O)[C@H](CCC(=O)O)NC(=O)[C@H](CCCCN)NC(=O)[C@@H](NC(=O)[C@H](CCCCN)NC(=O)[C@H](CC(N)=O)NC(=O)[C@H](CCCNC(=N)N)NC(=O)[C@H](Cc1ccccc1)NC(=O)[C@H](CCCCN)NC(=O)[C@H](CCCNC(=N)N)NC(=O)[C@H](CC(C)C)NC(=O)[C@H](CCCNC(=N)N)NC(=O)[C@H](CCCCN)NC(=O)[C@H](CCCNC(=N)N)NC(=O)[C@H](CC(C)C)NC(=O)CNC(=O)[C@H](CC(C)C)NC(=O)[C@H](Cc1ccccc1)NC(=O)CNC(=O)CCCc1ccc(N(CCCl)CCCl)cc1)[C@@H](C)CC)NC(=O)[C@H](CCCNC(=N)N)NC(=O)[C@H](CC(C)C)NC(=O)CNC(=O)[C@H](CC(C)C)NC(=O)[C@H](Cc1ccccc1)NC(=O)CNC(=O)CCCc1ccc(N(CCCl)CCCl)cc1)C(=O)N[C@@H](CCCCN)C(=O)N[C@@H](CCC(=O)O)C(=O)N[C@@H](CCCCN)C(N)=O [compound 3] (I: Chlorambucil-GFLGLRKRLRKFRNKIKEK / II: Chlorambucil-GFLGLRKRLRKFRNKIKEK-NH2; amide I:C-II:7),IC50,HT-29 cells [7],26 ± 1.2 µM
same,IC50,MCF-7 cells [9],8.9 ± 0.3 µM
same,LDH release compared to the cymantrene conjugates,HT-29 cells [10]; different concentrations (Figure 9),equal amount of LDH release
same,LDH release compared to the cymantrene conjugates,"MCF-7 cells [11]; MCF-7, 1 h incubation, different concentrations (Figure 9)",equal amount of LDH release
"GLRKRLRKFRNKIKEK-NH2 [sC18, reference compound]",cellular uptake at 1 µM,"HEK-293 cells [1]; 37 °C, OptiMEM",almost failed to internalize
same,cellular uptake at 1 µM,"HT-29 cells [2]; 37 °C, OptiMEM",almost failed to internalize
same,cellular uptake at 1 µM,"MCF-7 cells [3]; 37 °C, OptiMEM",almost failed to internalize
same,intracellular distribution pattern,HEK-293 cells [4],punctate uptake pattern
same,uptake into primary cells,[5]; [14],hardly any detectable uptake
same,cell viability (previous studies),HT-29 cells [12],did not cause any loss of cell viability
same,cell viability (previous studies),MCF-7 cells [13],did not cause any loss of cell viability
I: KLAKLAKKLAKLAKGFLGLRKRLRKFRNKIKEK-NH2 / II: GLRKRLRKFRNKIKEK (amide I:21-II:C) [compound 4],IC50,HT-29 cells [7],14.3 ± 1.4 µM
same,IC50,MCF-7 cells [9],3.6 ± 1.5 µM
